This is an account of results in article PMC4124913 (Bioorganic & medicinal chemistry, 2013).

For assay [1], the system named is K562 cells expressing Abl. Put plainly: In vitro radiotracer accumulation, washout and blocking in K562 cells. The note with it: cell cultures, excess cold STI-571. It is filed as cell-based, human.
For assay [2], the target named is Bcr-Abl (Homo sapiens, UniProt P00519). As to the kind of experiment: Bcr-Abl kinase assay. Particulars: for ΔΔGbind (exptl): RT ln [IC50(cmpd)/IC50(11a)], 298 K.

Usually IC50 stands for the midpoint of a concentration-inhibition curve.

Chain of Bcr-Abl (P00519 whole entry): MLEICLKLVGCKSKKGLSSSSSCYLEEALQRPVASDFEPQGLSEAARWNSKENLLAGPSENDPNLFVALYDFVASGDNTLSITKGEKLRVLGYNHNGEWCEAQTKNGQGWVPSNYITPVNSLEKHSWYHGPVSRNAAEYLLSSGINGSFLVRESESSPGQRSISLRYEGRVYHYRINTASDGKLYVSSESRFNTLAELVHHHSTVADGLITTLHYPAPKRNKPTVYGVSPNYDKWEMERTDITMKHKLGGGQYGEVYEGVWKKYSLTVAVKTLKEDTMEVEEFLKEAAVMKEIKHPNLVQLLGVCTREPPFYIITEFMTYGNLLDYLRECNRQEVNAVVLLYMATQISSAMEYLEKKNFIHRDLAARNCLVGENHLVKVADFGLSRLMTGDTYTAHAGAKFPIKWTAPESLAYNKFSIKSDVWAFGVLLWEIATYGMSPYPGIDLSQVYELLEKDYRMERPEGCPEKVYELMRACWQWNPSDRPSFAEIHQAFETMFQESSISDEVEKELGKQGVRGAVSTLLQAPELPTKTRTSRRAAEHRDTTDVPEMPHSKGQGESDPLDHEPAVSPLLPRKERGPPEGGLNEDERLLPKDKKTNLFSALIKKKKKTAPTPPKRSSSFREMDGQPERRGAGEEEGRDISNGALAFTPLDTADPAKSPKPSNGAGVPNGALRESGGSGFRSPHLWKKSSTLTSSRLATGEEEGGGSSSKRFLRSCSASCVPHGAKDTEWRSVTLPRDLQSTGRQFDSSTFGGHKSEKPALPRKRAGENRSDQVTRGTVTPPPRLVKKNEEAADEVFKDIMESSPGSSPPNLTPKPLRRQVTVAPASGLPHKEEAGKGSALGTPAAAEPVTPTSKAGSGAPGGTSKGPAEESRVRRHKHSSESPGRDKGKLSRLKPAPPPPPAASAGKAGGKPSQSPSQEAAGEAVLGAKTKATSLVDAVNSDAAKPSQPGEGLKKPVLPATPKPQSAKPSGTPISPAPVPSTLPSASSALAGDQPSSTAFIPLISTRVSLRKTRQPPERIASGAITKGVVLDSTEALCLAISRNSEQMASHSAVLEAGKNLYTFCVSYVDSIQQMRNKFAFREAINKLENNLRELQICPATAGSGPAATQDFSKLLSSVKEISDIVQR

With `Cc1ccc(NC(=O)c2ccc(CN3CCN(CC[18F])CC3)cc2)cc1Nc1nccc(-c2cccnc2)n1` [Compound 11g], the “binding on addition of excess STI-571 (blocking)” value in assay [1] is “diminished as excess STI-571 was added”.
`Cc1ccc(NC(=O)c2ccc(CN3CCN(CCO)CC3)cc2)cc1Nc1nccc(-c2cccnc2)n1` [Compound 11c]: in assay [2], the “ΔΔGbind (exptl)” value was determined as 2.44 kcal/mol.
As for `Cc1ccc(NC(=O)c2ccc(CN3CCN(CCF)CC3)cc2)cc1Nc1nccc(-c2cccnc2)n1` [Compound 11b], in assay [2], it took 1300 nM to reach half-maximal inhibition (IC50) and the “ΔΔGbind (exptl)” value amounted to 1.47 kcal/mol.
With `Cc1ccc(NC(=O)c2ccc(CN3CCN(Cc4ccc(I)cc4)CC3)cc2)cc1Nc1nccc(-c2cccnc2)n1` [Compound 11e], the “ΔΔGbind (exptl)” value in assay [2] came out at 1.10 kcal/mol.
